Data reported in the supplement of paper PMC10307832.

Assays:
Assay in all cases: relative viability (nuclei count vs DMSO), 5 days (fraction); higher = more cells survive
[1] = compound: O[C@@H](COc1cccc2ncccc12)CN1CCN([C@@H]2c3ccccc3[C@@H]3[C@H](c4ccccc42)C3(F)F)CC1 [Zosuquidar] + COc1cccc2cc(-c3nc([C@H]4CC[C@H](C(=O)O)CC4)n4ncnc(N)c34)[nH]c12 [OSI-027] (partner 0.5 µM)
Procedure, shortened: (§1)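 Lung cancer cell lines in 1536-well plates were dosed by pin tool the day after seeding, either with one drug alone or with a fixed anchor-drug dose plus five library-drug doses (not always all listed) in √10 steps. After 5 days, cells were fixed and their nuclei stained in one step (final 0.05% Triton X-100, 1% formaldehyde, 1 ug/ml Hoechst), then counted on 4× images. Relative viability is the nuclei count in treated wells divided by that in vehicle wells. Values are medians of duplicate plates.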

[2] = compound: C1=CC(=CC=C1NC(=S)NNC2=C(C=C(C=C2[N+](=O)[O-])C(F)(F)F)[N+](=O)[O-])F [Kobe2602] + CCNC(=O)c1noc(-c2cc(C(C)C)c(O)cc2O)c1-c1ccc(CN2CCOCC2)cc1 [Luminespib] (partner 0.01 µM)
Procedure, shortened: as §1

[3] = compound: COc1cc2nccc(Oc3ccc(NC(=O)C4(C(=O)Nc5ccc(F)cc5)CC4)cc3)c2cc1OC [Cabozantinib] + CC1(C)CCC(c2ccc(Cl)cc2)=C(CN2CCN(c3ccc(C(=O)NS(=O)(=O)c4ccc(N[C@H](CCN5CCOCC5)CSc5ccccc5)c(S(=O)(=O)C(F)(F)F)c4)cc3)CC2)C1 [Navitoclax] (partner 0.5 µM)
Procedure, shortened: as §1

[4] = compound: C1=CC(=CC=C1NC(=S)NNC2=C(C=C(C=C2[N+](=O)[O-])C(F)(F)F)[N+](=O)[O-])F [Kobe2602] + CS(=O)(=O)CCNCc1ccc(-c2ccc3ncnc(Nc4ccc(OCc5cccc(F)c5)c(Cl)c4)c3c2)o1 [Lapatinib] (partner 2 µM)
Procedure, shortened: as §1

Row | Cell Line | relative viability ([1]; first compound 0.01 µM) | relative viability ([1]; first compound 0.03162 µM) | relative viability ([1]; first compound 0.1 µM) | relative viability ([1]; first compound 0.3162 µM) | relative viability ([1]; first compound 1 µM) | relative viability ([2]; first compound 0.2 µM) | relative viability ([2]; first compound 0.6325 µM) | relative viability ([2]; first compound 2 µM) | relative viability ([2]; first compound 6.325 µM) | relative viability ([2]; first compound 20 µM) | relative viability ([3]; first compound 0.02 µM) | relative viability ([3]; first compound 0.06325 µM) | relative viability ([3]; first compound 0.2 µM) | relative viability ([3]; first compound 0.6325 µM) | relative viability ([3]; first compound 2 µM) | relative viability ([4]; first compound 0.2 µM) | relative viability ([4]; first compound 0.6325 µM) | relative viability ([4]; first compound 2 µM) | relative viability ([4]; first compound 6.325 µM) | relative viability ([4]; first compound 20 µM)
1 | NCI-H1650 | 0.737 | 0.607 | 0.601 | 0.759 | 0.669 | 0.188 | 0.185 | 0.177 | 0.211 | 0.178 | 1.19 | 1.5 | 1.07 | 1.23 | 1.06 | 0.833 | 1.07 | 0.773 | 0.941 | 0.875
2 | NCI-H1355 | 0.395 | 0.409 | 0.299 | 0.449 | 0.386 | 0.795 | 0.686 | 0.607 | 0.775 | 0.75 | 0.96 | 0.974 | 0.967 | 0.893 | 0.861 | 0.942 | 1.01 | 0.992 | 0.876 | 0.929
3 | NCI-H2170 | 0.701 | 0.731 | 0.641 | 0.743 | 0.713 | 0.856 | 0.922 | 0.703 | 0.944 | 0.719 | 0.579 | 0.611 | 0.559 | 0.652 | 0.62 | 0.282 | 0.261 | 0.262 | 0.272 | 0.303
4 | NCI-H1734 | 0.587 | 0.612 | 0.541 | 0.697 | 0.662 | 0.196 | 0.175 | 0.167 | 0.187 | 0.173 | 0.8 | 0.832 | 0.85 | 0.818 | 0.667 | 1.06 | 1.11 | 1.14 | 1.26 | 1.03
5 | LXF-289 | 0.744 | 0.862 | 0.741 | 0.856 | 0.915 | 0.7 | 0.799 | 0.637 | 0.606 | 0.708 | 0.991 | 0.934 | 0.926 | 0.927 | 0.933 | 0.872 | 0.891 | 0.88 | 0.874 | 0.873
6 | SK-LU-1 | 0.369 | 0.35 | 0.401 | 0.432 | 0.33 | 0.204 | 0.222 | 0.189 | 0.188 | 0.205 |  | 1.09 | 0.967 | 0.852 | 0.988 | 0.859 | 0.88 | 0.92 | 0.859 | 0.817
7 | NCI-H2087 | 0.607 |  | 0.432 | 0.694 | 0.587 | 0.226 | 0.153 | 0.174 | 0.143 | 0.153 | 1.03 | 1.1 | 1.06 | 0.985 | 0.981 | 0.879 | 1.01 | 1.26 | 0.957 | 1.04
8 | SK-MES-1 | 0.639 | 0.665 | 0.549 | 0.638 | 0.652 | 0.67 | 0.778 | 0.853 | 0.832 | 0.406 | 1.28 | 1.24 | 1.22 | 1.23 | 1.19 | 0.465 | 0.488 | 0.427 | 0.436 | 0.464
9 | NCI-H1793 | 0.315 | 0.389 |  | 0.287 | 0.311 | 0.185 | 0.201 | 0.217 | 0.47 | 0.205 | 0.477 | 0.514 | 0.267 | 0.235 | 0.29 | 1.03 | 0.663 | 0.621 | 0.623 | 0.78
10 | NCI-H2228 | 0.614 | 0.635 | 0.604 | 0.745 | 0.428 | 0.129 | 0.177 | 0.198 | 0.145 | 0.165 | 0.784 | 0.689 | 0.725 | 0.824 | 0.805 | 1.08 | 1.02 | 0.985 | 1.12 | 1.75
11 | H3255 | 0.639 | 0.532 | 0.451 | 0.624 | 0.565 | 0.769 | 0.981 | 0.902 | 0.937 | 0.878 | 0.491 | 0.676 |  | 0.687 | 0.553 | 0.244 | 0.301 | 0.234 | 0.25 | 0.239
12 | HCC-15 | 0.653 | 0.64 | 0.568 | 0.779 | 0.725 | 0.411 | 0.272 | 0.301 | 0.255 | 0.384 | 0.743 | 0.739 | 0.77 | 0.67 | 0.645 | 0.856 | 0.937 | 0.81 | 0.863 | 0.809
13 | PC-14 | 0.903 | 0.714 | 0.826 | 1.02 | 0.78 | 0.16 | 0.161 | 0.307 | 0.151 | 0.149 | 1.06 | 1.09 |  | 0.931 | 0.997 | 0.31 | 0.426 | 0.294 | 0.333 | 0.306
14 | NCI-H2023 | 0.354 | 0.401 | 0.325 | 0.665 | 0.427 | 0.596 | 0.783 | 0.759 | 0.528 | 0.156 | 1.07 | 1.05 | 0.931 | 0.872 | 0.691 | 0.833 | 0.914 | 0.811 | 0.815 | 0.739
15 | HCC-44 | 0.53 | 0.391 | 0.542 | 0.521 | 0.581 | 1.05 | 0.97 | 0.984 | 1.13 | 0.921 | 1.01 | 1.1 | 1.02 | 1.07 | 0.965 | 1 | 1.05 | 1.01 | 1.03 | 0.954
16 | COR-L23 | 0.738 | 0.702 | 0.688 | 0.858 | 0.757 | 0.685 | 0.64 | 0.537 | 0.648 | 0.684 | 1.07 | 1.16 | 1.03 | 0.973 | 0.931 | 0.856 | 1.05 | 1.02 | 0.876 | 0.907
